Results from patent EP2848122A1, “NEW PESTICIDE INCLUSION COMPLEXES, CO[…] COMPLEXES AND THE USE THEREOF AS PESTICIDES” (priority 2012, dated 2013).
≈ marks a conversion by molar mass, not a printed value.

Test: water solubility by ultraviolet (UV) spectrophotometry
Type: physicochemical
Details: at 25 °C, free pesticide, read-out: intrinsic solubility
Source text: Figure 1: Diagram of a solubility study using ultraviolet (UV) spectrophotometry of Bendiocarb as the concentration of cyclodextrin increases. Figure 2: Graph of differential scanning thermogravimetry (DST) of Bifenthrin alone, cyclodextrin (CD) alone, physical mixture of the two, and inclusion complex formed (encapsulated). Figure 3: Curves of differential thermal analysis (DTA) and thermal gravimetric analysis (TGA) of Tetramethrin alone, cyclodextrin (CD) alone, physical mixture of the two, and different inclusion complexes formed according to methods 1 or 2 and with the indicated stechiometries 1:1 or 2:1. Figure 4: Spectra of Nuclear Magnetic Resonance (1 H NMR) of Acetamiprid alone (a), cyclodextrin (CD) alone (b) and formed inclusion complex (c). Figure 5: Scanning electron photographs (SEM) of the structural change of Tebuconazole once the inclusion complex with cyclodextrin is formed. Figure 6: X-ray diffractograms (XRD) of Imidacloprid alone, cyclodextrin (CD) alone, physical mixture of both and inclusion complex formed (encapsulation). Figure 7: Diagram of the three-dimensional structures of the Acetamiprid-cyclodextrin complex by formation of a single crystal. Figure 8: Structural modelling by means of the program MACROMODEL of the Acetamiprid-cyclodextrin dimer. Figure 9: Performance of the Bendiocarb microencapsulation reaction (DSC). […]

Molecule CNC(=O)Oc1cccc2c1OC(C)(C)O2 [Bendiocarb] has a solubility of 600 µM (≈ 134 µg/mL).
